Measurements published in ChEMBL document CHEMBL4834415, “Distinct Lugdunins from a New Efficient Synthesis and Broad Exploitation of Its MRSA-Antimicrobial Structure” (2021).
Values after ≈ are worked out from the molar mass of the structure shown.

Each molecule was assayed on Staphylococcus aureus (assay: Antibacterial activity against methicillin-resistant Staphylococcus aureus USA300 LAC assessed as reduction in bacterial growth incubated for 21 hrs by broth dilution method).
Assay type: functional

| Structure (SMILES) | MIC |
| --- | --- |
| CC[C@H](C)[C@H]1NC(=O)[C@@H]2CSC(N2)[C@H](C(C)C)NC(=O)[C@@H](Cc2c[nH]c3ccccc23)NC(=O)[C@H](C(C)C)NC(=O)[C@@H](CC(C)C)NC(=O)[C@H](Cc2c3ccccc3cc3ccccc23)NC1=O | 106 µM (≈ 100 µg/mL) |
| CC(C)[C@@H]1NC(=O)[C@@H](Cc2c[nH]c3ccccc23)NC(=O)[C@H](C(C)C)NC(=O)[C@@H](Cc2c[nH]c3ccccc23)NC(=O)[C@H](Cc2c[nH]c3ccccc23)NC(=O)[C@@H](C(C)C)NC(=O)[C@@H]2CSC1N2 | 106 µM (≈ 100 µg/mL) |
| CCC[C@H]1NC(=O)[C@H](Cc2c[nH]c3ccccc23)NC(=O)[C@@H](C(C)C)NC(=O)[C@@H]2CSC(N2)[C@H](C(C)C)NC(=O)[C@@H](Cc2c[nH]c3ccccc23)NC(=O)[C@H](C(C)C)NC1=O | 14.6 µM (≈ 12.5 µg/mL) |
| CSCC[C@H]1NC(=O)[C@H](Cc2c[nH]c3ccccc23)NC(=O)[C@@H](C(C)C)NC(=O)[C@@H]2CSC(N2)[C@H](C(C)C)NC(=O)[C@@H](Cc2c[nH]c3ccccc23)NC(=O)[C@H](C(C)C)NC1=O | 113 µM (≈ 100 µg/mL) |
| CC(C)C[C@H]1NC(=O)[C@H](Cc2nc3ccccc3s2)NC(=O)[C@@H](C(C)C)NC(=O)[C@@H]2CSC(N2)[C@H](C(C)C)NC(=O)[C@@H](C(C)C)NC(=O)[C@H](C(C)C)NC1=O | 31.3 µM (≈ 25.1 µg/mL) |
| CC(C)C[C@H]1NC(=O)[C@H](Cc2c(F)c(F)c(F)c(F)c2F)NC(=O)[C@@H](C(C)C)NC(=O)[C@@H]2CSC(N2)[C@H](C(C)C)NC(=O)[C@@H](C(C)C)NC(=O)[C@H](C(C)C)NC1=O | 30 µM (≈ 25 µg/mL) |
| CC(C)C[C@H]1NC(=O)[C@H](Cc2ccc(Cl)cc2)NC(=O)[C@@H](C(C)C)NC(=O)[C@@H]2CSC(N2)[C@H](C(C)C)NC(=O)[C@@H](C(C)C)NC(=O)[C@H](C(C)C)NC1=O | 129 µM (≈ 100 µg/mL) |
| CC(C)C[C@H]1NC(=O)[C@H](Cc2c[nH]c3ccccc23)NC(=O)[C@@H](Cc2c[nH]c3ccccc23)NC(=O)[C@@H]2CSC(N2)[C@H](C(C)C)NC(=O)[C@@H](C(C)C)NC(=O)[C@H](C(C)C)NC1=O | 28.8 µM (≈ 25.1 µg/mL) |
| CC(C)C[C@H]1NC(=O)[C@@H]2Cc3ccccc3CN2C(=O)[C@@H](C(C)C)NC(=O)[C@@H]2CSC(N2)[C@H](C(C)C)NC(=O)[C@@H](C(C)C)NC(=O)[C@H](C(C)C)NC1=O | 132 µM (≈ 100 µg/mL) |
| CC(C)C[C@H]1NC(=O)[C@H](Cc2c[nH]c3ccccc23)NC(=O)[C@@H](Cc2ccccc2)NC(=O)[C@@H]2CSC(N2)[C@H](C(C)C)NC(=O)[C@@H](C(C)C)NC(=O)[C@H](C(C)C)NC1=O | 120 µM (≈ 100 µg/mL) |
| C#CC[C@H]1NC(=O)[C@@H]2CSC(N2)[C@H](C(C)C)NC(=O)[C@@H](Cc2c[nH]c3ccccc23)NC(=O)[C@H](C(C)C)NC(=O)[C@@H](CC(C)C)NC(=O)[C@H](Cc2c[nH]c3ccccc23)NC1=O | 3.9 µM (≈ 3.38 µg/mL) |
| CC(C)[C@@H]1NC(=O)[C@@H](Cc2c[nH]c3ccccc23)NC(=O)[C@H](C(C)C)NC(=O)C2(CC2)NC(=O)[C@H](Cc2c[nH]c3ccccc23)NC(=O)[C@@H](C(C)C)NC(=O)[C@@H]2CSC1N2 | 119 µM (≈ 100 µg/mL) |
| CC[C@@H](C)[C@H]1NC(=O)[C@@H]2CSC(N2)[C@H](C(C)C)NC(=O)[C@@H](C(C)C)NC(=O)[C@H](C(C)C)NC(=O)[C@@H](CC(C)C)NC(=O)[C@H](Cc2c[nH]c3ccccc23)NC1=O | 31.4 µM (≈ 25 µg/mL) |
| C=CC[C@H]1NC(=O)[C@H](Cc2c[nH]c3ccccc23)NC(=O)[C@@H](C(C)C)NC(=O)[C@@H]2CSC(N2)[C@H](C(C)C)NC(=O)[C@@H](Cc2c[nH]c3ccccc23)NC(=O)[C@H](C(C)C)NC1=O | 58.6 µM (≈ 50 µg/mL) |
| CC(C)CC[C@H]1NC(=O)[C@@H]2CSC(N2)[C@H](C(C)C)NC(=O)[C@@H](C(C)C)NC(=O)[C@H](C(C)C)NC(=O)[C@@H](CC(C)C)NC(=O)[C@H](Cc2c[nH]c3ccccc23)NC1=O | 61.7 µM (≈ 50 µg/mL) |
| CC(C)C[C@H]1NC(=O)[C@@H]2CSC(N2)[C@H](C(C)C)NC(=O)[C@@H](C(C)C)NC(=O)[C@H](C(C)C)NC(=O)[C@@H](CC(C)C)NC(=O)[C@H](Cc2c[nH]c3ccccc23)NC1=O | 15.7 µM (≈ 12.5 µg/mL) |
| CCC[C@H]1NC(=O)[C@@H]2CSC(N2)[C@H](C(C)C)NC(=O)[C@@H](Cc2c[nH]c3ccccc23)NC(=O)[C@H](C(C)C)NC(=O)[C@@H](CC(C)C)NC(=O)[C@H](Cc2c[nH]c3ccccc23)NC1=O | 7.2 µM (≈ 6.26 µg/mL) |
| CC[C@H](C)[C@H]1NC(=O)[C@H](Cc2c[nH]c3ccccc23)NC(=O)[C@@H](C(C)C)NC(=O)[C@@H]2CSC(N2)[C@H](C(C)C)NC(=O)[C@@H](C(C)C)NC(=O)[C@H](C(C)C)NC1=O | 31.9 µM (≈ 25 µg/mL) |
